Results on five compounds are retold here after ChEMBL document CHEMBL1201862, “PubChem BioAssay data set” (2004).

The source made the active and inactive calls. Bounds are passed on as bounds.

For one experiment, the target named is T1, Caspase-3 (Homo sapiens, UniProt P42574).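 Note: Dose-response selectivity test against caspase-3 for candidate inhibitors of sentrin-specific proteases (SENPs).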
T1 sequence (P42574 whole entry): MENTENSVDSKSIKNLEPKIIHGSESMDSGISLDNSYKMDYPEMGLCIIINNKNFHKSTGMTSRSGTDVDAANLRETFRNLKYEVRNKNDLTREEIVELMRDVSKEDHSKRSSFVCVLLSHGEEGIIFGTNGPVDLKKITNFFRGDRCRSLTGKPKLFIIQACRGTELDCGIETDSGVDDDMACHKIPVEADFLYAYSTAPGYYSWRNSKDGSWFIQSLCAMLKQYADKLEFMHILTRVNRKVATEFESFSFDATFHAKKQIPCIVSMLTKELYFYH
The experiment is classed as functional.

Experiment [1] addresses T2, Sentrin-specific protease 7 (Homo sapiens, UniProt Q9BQF6).
T2 sequence (Q9BQF6 whole entry): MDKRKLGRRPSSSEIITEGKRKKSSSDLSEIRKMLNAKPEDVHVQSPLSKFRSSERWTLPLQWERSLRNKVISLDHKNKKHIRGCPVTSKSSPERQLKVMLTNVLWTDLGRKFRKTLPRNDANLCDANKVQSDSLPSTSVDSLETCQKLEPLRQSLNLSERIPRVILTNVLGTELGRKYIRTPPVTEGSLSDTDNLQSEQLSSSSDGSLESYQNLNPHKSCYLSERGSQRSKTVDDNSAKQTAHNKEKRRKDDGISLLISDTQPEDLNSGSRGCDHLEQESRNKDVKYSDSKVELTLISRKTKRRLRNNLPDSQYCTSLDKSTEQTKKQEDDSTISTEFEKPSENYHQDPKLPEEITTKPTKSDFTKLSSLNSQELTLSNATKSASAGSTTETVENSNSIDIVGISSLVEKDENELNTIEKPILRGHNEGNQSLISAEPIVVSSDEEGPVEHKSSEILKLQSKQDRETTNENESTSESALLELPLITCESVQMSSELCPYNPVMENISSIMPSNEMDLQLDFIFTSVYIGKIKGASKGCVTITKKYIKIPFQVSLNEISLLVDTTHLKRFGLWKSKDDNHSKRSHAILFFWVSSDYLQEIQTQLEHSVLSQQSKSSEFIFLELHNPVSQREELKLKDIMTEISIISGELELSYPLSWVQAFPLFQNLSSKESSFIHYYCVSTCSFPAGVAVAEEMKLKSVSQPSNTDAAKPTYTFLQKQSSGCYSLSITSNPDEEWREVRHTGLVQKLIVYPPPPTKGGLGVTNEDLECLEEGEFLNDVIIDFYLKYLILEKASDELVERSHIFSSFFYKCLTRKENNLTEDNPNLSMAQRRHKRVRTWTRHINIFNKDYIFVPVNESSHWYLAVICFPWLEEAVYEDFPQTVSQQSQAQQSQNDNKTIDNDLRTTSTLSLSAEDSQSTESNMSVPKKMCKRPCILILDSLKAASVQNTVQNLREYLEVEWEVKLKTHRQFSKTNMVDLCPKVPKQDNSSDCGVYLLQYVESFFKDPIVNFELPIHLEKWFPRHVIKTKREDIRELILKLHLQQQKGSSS
The experiment is classed as functional.

Experiment [2] deals with T3, Heat shock factor protein 1 (Mus musculus, UniProt P38532).
T3 sequence (P38532 whole entry): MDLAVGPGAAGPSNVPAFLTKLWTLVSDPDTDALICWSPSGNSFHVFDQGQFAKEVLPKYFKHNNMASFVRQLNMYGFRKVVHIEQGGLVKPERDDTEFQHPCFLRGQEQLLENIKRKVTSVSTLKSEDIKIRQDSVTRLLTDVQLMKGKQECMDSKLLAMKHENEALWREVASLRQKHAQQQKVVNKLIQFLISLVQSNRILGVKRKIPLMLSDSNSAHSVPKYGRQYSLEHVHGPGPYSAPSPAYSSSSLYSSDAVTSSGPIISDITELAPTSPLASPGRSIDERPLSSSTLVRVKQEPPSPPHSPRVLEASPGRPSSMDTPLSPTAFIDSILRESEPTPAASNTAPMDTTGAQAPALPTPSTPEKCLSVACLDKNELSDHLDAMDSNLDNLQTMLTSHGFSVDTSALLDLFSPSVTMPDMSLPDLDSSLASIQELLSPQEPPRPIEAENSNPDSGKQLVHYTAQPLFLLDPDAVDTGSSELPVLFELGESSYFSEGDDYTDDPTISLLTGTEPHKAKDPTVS
In words: HSF1 potentiators in luciferase reporter cells, confirmation, cell-based, NIH3T3, luminescence, dose retest (AID 435004).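 Note: stress induced by proteasome inhibitor MG132 added 30 min after compound; luciferase reporter driven by HSF1 response element in NIH3T3 cells; actives raise luminescence as potentiators of the MG132 stress response.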 It counts as functional. Background: Reporter assays use an easily measured gene product as a stand-in for the process of interest.

Experiment [3] concerns the target T4, Sentrin-specific protease 6 (Homo sapiens, UniProt Q9GZR1).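 Note: Luminescence-based dose-response confirmatory assay of SENP6 inhibition, following up an ultra-high-throughput screen.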
T4 sequence (Q9GZR1 whole entry): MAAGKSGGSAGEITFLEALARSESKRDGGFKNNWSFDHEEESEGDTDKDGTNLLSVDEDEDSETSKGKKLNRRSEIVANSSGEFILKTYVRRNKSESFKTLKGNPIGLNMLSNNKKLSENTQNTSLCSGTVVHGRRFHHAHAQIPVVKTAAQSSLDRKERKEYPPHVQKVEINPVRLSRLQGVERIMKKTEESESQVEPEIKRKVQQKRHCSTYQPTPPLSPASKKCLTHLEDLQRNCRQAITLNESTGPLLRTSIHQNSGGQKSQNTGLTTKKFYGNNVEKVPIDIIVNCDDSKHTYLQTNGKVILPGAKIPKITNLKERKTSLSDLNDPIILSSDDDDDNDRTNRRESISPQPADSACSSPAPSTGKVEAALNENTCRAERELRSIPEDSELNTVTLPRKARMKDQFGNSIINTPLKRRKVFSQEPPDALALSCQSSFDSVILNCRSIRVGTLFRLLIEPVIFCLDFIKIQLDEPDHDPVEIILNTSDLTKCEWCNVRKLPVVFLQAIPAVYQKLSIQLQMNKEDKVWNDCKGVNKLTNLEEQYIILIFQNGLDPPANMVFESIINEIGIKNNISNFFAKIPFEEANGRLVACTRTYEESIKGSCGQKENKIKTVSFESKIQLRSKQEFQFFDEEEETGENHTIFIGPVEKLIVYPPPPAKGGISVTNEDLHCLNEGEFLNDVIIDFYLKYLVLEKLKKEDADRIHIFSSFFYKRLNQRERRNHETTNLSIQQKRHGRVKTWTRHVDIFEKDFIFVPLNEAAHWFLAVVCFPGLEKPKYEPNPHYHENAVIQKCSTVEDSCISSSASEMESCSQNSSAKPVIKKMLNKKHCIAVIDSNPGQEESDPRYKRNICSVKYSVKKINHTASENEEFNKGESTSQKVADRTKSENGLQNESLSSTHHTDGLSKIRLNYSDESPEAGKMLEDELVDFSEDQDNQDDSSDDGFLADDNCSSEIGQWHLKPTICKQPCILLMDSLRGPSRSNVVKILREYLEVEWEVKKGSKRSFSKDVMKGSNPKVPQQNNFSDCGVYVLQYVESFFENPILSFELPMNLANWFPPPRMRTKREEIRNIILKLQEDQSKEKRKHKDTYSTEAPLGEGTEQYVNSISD
It counts as functional.

Experiment [4] concerns the target T5, Sentrin-specific protease 8 (Homo sapiens, UniProt Q96LD8).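 Note: luminescence read-out of SENP8 inhibition, dose-response confirmation following an ultra-high-throughput screen.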
T5 sequence (Q96LD8 whole entry): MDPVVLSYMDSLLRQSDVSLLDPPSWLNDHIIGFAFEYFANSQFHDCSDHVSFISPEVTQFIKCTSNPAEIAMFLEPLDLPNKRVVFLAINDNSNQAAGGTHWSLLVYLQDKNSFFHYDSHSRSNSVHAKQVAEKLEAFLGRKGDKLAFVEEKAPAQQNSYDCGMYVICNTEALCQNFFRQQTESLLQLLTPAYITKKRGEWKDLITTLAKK
It counts as functional.

For experiment [5], the target named is T6, Oxysterols receptor LXR-beta (Homo sapiens, UniProt P55055).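 Note: Cell-based luminescence dose-response assay of agonist activity at LXR, run as a confirmatory counterscreen to a daf-12 agonist screen; HEK293 cells with Gal4-LXR fusion and GAL4-driven luciferase reporter; agonist potency from rising luciferase signal of a Gal4-LXR reporter.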
T6 sequence (P55055 whole entry): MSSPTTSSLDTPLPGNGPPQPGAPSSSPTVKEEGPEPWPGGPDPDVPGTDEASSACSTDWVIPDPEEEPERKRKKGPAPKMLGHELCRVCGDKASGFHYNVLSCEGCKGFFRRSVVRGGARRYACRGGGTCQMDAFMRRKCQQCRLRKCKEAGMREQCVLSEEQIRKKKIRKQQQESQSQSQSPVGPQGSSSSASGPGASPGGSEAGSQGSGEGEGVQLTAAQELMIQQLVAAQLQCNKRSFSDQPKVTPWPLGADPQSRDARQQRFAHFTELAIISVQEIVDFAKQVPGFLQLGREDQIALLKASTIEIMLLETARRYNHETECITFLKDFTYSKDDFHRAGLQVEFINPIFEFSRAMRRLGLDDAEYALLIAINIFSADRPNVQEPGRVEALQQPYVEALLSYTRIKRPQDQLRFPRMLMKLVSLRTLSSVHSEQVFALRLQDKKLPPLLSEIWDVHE
It counts as functional, cell-based.

The next experiment deals with Transthyretin (Homo sapiens, UniProt P02766). In words: Luminescence-based cell-based high throughput dose response assay to identify activators of Transthyretin (TTR) transcription. The experiment is classed as functional.
In a further experiment the target is Paired box protein Pax-8 (Homo sapiens, UniProt Q06710). In words: inhibitors of PAX8-driven TPO luciferase reporter, dose response, RMG-I cells, cherry-pick (AID 687027).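 Note: luciferase reporter driven by Pax8 target thyroperoxidase promoter measured by SteadyGlo luminescence.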 It counts as functional, cell-based.
The nature of experiment [6]: inhibitors of PGC1a acetylation in cells, dose response, cell-based, cherry-picked samples (AID 720514).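 Note: potency may reflect raised or lowered acetylation signal.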 The experiment is classed as functional.
A short description of experiment [7]: inhibitors of HIV Env-driven cell fusion, dose response, cherry-pick (AID 652057). The experiment is classed as functional, cell-based.
Experiment [8] can be described thus: ZM109 Env clade C HIV-1 fusion inhibitors, dose response, HeLa effector, CEM target cells, luciferase, cherry-pick (AID 652058). The experiment is classed as functional, cell-based.
The nature of experiment [9]: inhibitors of clade B AD8 Env fusion, dose response, cell-based, cherry-pick (AID 652062).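 Note: luciferase signal from cell-cell fusion driven by HIV-1 clade B AD8 Env; potency is for inhibitors of fusion seen as a drop in luminescence.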 The experiment is classed as functional.
Experiment [10] is described as follows: P. falciparum 3D7-ScDHODH growth inhibitors, dose response, SYBR Green, dry powder samples (AID 1159570).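 Note: parasite growth measured after 72 hours of compound exposure.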 It counts as functional, cell-based.
Experiment [11] is described as follows: P. falciparum Dd2 growth inhibitors, dose response, SYBR Green, cherry-picked samples (AID 1159567). It counts as functional, cell-based.
A short description of experiment [12]: P. falciparum Dd2 growth inhibitors, dose response, SYBR Green, dry powder samples (AID 1159566).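 Note: potency for growth inhibition with lower SYBR green DNA signal.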 It counts as functional, cell-based.
Experiment [13] is described as follows: P. falciparum ATP4 D1247Y mutant growth inhibitors, dose response, NITD609-resistant line, SYBR Green, dry powder (AID 1159571).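 Note: parasites synchronized at ring stage by sorbitol before testing.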 The experiment is classed as functional, cell-based.
Experiment [14] addresses Heat shock protein HSP 90-alpha (Homo sapiens, UniProt P07900). It counts as functional, organism-based.
The nature of experiment [15]: Shn3 3'UTR reporter inhibitors, dose response, cell-based, Clone20 osteoblasts, firefly luciferase, cherry-picked (AID 624132).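 Note: firefly luciferase luminescence from reporter carrying the Shn3 3'UTR in osteoblasts.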 The experiment is classed as functional.
A short description of experiment [16]: control 3'UTR Renilla luciferase suppression, dose response, counter-screen for Shn3 inhibitor project, cell-based, Clone20-Shn3RL, cherry-picked (AID 624133). It counts as functional. A general note: A counterscreen serves to expose hits that act by an unwanted route or on another target.
Experiment [17] is described as follows: Fluorescence-based cell-based high throughput dose response assay for inhibitors of the interaction of nucleotide-binding oligomerization domain containing 2 (NOD2) and the receptor-interacting serine-threonine kinase 2 (RIPK2). It counts as functional. The settings on record: Homo sapiens.
For the next experiment, the system named is HeLa. In words: HeLa cell cytotoxicity, dose response, cytotoxicity control, ATP luminescence, cherry-pick samples (AID 687004). It counts as functional, cell-based. The settings on record: Homo sapiens.

Chain of Paired box protein Pax-8 (Q06710 whole entry): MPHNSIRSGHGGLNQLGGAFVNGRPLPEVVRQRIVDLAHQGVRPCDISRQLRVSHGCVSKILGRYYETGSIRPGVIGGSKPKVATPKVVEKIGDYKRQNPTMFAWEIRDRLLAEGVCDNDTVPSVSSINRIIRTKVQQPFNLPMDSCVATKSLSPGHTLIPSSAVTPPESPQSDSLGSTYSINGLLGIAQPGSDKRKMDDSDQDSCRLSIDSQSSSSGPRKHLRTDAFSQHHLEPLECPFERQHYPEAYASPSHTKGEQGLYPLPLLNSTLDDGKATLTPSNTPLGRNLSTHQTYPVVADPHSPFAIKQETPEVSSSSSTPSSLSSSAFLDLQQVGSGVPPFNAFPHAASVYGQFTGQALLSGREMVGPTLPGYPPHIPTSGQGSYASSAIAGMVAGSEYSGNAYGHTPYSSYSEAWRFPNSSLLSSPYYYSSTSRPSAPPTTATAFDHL

In the case of `c1ccc(N2CC3CCc4ccccc4C3=N2)cc1` (stereo not drawn), the IC50 on Caspase-3 was 23.3 µM (active); in experiment [1], 5.67 µM (active); in experiment [3], 30.4 µM (active); in experiment [4] it was 58.4 µM (active). In addition, the EC50 was 114 µM (active) in [2], > 67.5 µM (inactive) in [5] and > 67.5 µM (inactive) in the experiment “cells”.
As to `CN(Cc1ccccc1)C(=O)c1[nH]cnc1C(=O)NCC(=O)OC(C)(C)C`, the EC50 on Transthyretin is > 167 µM (inactive).
Turning to `Cc1ccc(S(=O)(=O)N(C)C[C@@H]2Oc3cc(C#Cc4ccncc4)ccc3S(=O)(=O)N([C@@H](C)CO)C[C@H]2C)cc1`, the half-maximal activity concentration (AC50) on Paired box protein Pax-8 is 2.51 µM (active); in experiment [6], 2.39 µM (active).
For the compound `COc1ccc(S(=O)(=O)Nc2ccc3c(c2)CC(=O)N([C@@H](C)CO)C[C@H](C)[C@H](CN(C)S(=O)(=O)c2ccc(C)cc2)O3)cc1`, the AC50 in experiment [7] was 3.56 µM (active); in experiment [8], 23.8 µM (active); in experiment [9] it was 33.9 µM (active); in [10] it was 0.928 µM (active); in experiment [11], 1.7 µM (active); in experiment [12], 0.563 µM (active). Besides, in [13], the AC50 was 0.553 µM (active).
`CC(=O)OC1(C)CC(C)C(=O)C(C(O)CC2CC(=O)NC(=O)C2)C1` (stereo not drawn): the AC50 in [14] is < 0.195 µM (active); in [15], < 0.26 µM (active); in experiment [16], < 0.26 µM (active); in the experiment with HeLa, 14.5 µM (active); in experiment [6], < 0.16 µM (active). In addition, the IC50 in experiment [17] is 49.8 µM (inactive).

As a reminder, the IC50 is the concentration at which inhibition is half-maximal. One may read the EC50 as the concentration that produces a half-maximal response. The term AC50 denotes the midpoint of the concentration-response curve, whichever way the signal moves.
